Measurements reported in patent US5910435A, “Method of folding proteins with synthetic dithiol catalysts” (Wisconsin Alumni Research Foundation, priority 1996, dated 1999).

How the values were obtained:
PDI deficient yeast = experiment: Complementation of PDI-deficient yeast with thioredoxin and its active-site mutants; assay type: cell-based
Text: Because the proper folding of proteins is of significant scientific and commercial interest, systems have been designed to help to study protein folding. One such system is based on a yeast cells which lack a nuclear gene for the PDI enzyme, and are therefore incapable of catalyzing the formation of the proper disulfide bonds required for biological activity of proteins. Such yeast cells can be grown so long as they harbor a plasmid that produces PDI, but the cells promptly expire when the plasmid PDI is removed. The ability of mutant, altered, or engineered forms of PDI to rescue the PDI-deficient yeast cultures from death is a test of the suitability of such altered isoforms to properly fold proteins. Investigation into the function of PDI, and its use in the unscrambling of non-native disulfide bonds, is described by Laboissiere et al., J. Biol. Chem. 270:47:28006-28009 (1995). Based on this test system, it has been possible to determine that the motif for PDI activity consists of a particular amino acid domain. This domain is shared in common with the reducing bacterial enzyme thioredoxin. The domain has the consensus sequence Cys-X-X-Cys (SEQ ID NO: 1 or C-X-X-C, where X is an amino acid, Edman, Nature 317:267-270 (1985).
That study was conducted using mutant PDI deficient yeast. […]

[1] = cited from earlier work
[2] = system: pdilΔ Saccharomyces cerevisiae; experiment: Rescue of PDI-deficient yeast on 5-FOA plates; assay type: cell-based; settings: for survival of colonies of PDI-deficient yeast after selection against the PDI plasmid: minimal medium plates containing 5-FOA, BMC at 10 mM, DTT by the same procedure
Experimental: The ability of a synthetic diol protein catalyst to catalyze protein folding in vivo was tested by its ability to replace the function of PDI in a eukaryotic cell. The cells used for this procedure were pdilΔ Saccharomyces cerevisiae, which have a deletion in their PDI1 gene rendering the expressed enzyme dysfunctional. The PDI1 gene is an essential gene for survival of S. cerevisiae. To enable these cells to live, the cells contain a plasmid that directs expression of S. cerevisiae PDI. This plasmid also directs the expression of the […] gene product. These cells were streaked onto plates of minimal medium containing 5-fluoroorotic acid (5-FOA) which makes the URA3 gene product toxic to S. cerevisiae. Accordingly, this selects against presence of the plasmid and surviving cells will have neither the plasmid nor PDI.
This test was run with plates containing 5-FOA which also contained 0 or 10 mM BMC. […] No colonies survived on the plate without BMC.
Cells from the colonies rescued with BMC were then plated onto rich medium without BMC.
This same procedure was repeated with the disulfide bond reducing agent dithiothrietol (DTT). DTT is a low molecular weight dithiol with a higher pKa and a lower E°' than BMC.

scrambled ribonuclease A = experiment: In vitro unscrambling of non-native disulfide bonds (regain of ribonucleolytic activity); assay type: biochemical; settings: 0, 20 or 200 μM; 1 mM reduced and 0.2 mM oxidized glutathione, pH 7.6, 30° C.; FIG. 5
Experimental: Disulfide bonds form readily in an oxidizing environment. These disulfide bonds may not, however, be the ones that exist in the native, active conformation of a protein. The desirable property in a synthetic protein foldase is the ability to catalyze the unscrambling of non-native disulfide bonds. The ability of BMC to catalyze the unscrambling of non-native disulfide bonds in vitro was assayed by a method similar to that reported previously by our group and others. Laboissiere et al, Protein Express. Purif. 6:700-706 (1995).
This assay is based on the disulfide bonds in ribonuclease A, a well-characterized enzyme. In its native, enzymatically active conformation, ribonuclease A has eight cysteine residues which participate in four specific disulfide bonds. […]
In the assay, BMC was tested for its ability to catalyze the regain of enzymatic activity in scrambled ribonuclease A. This regain in activity can only occur by the isomerization (or unscrambling) of the non-native disulfide bonds. […] In this test, the aliquot was added to 500 μL of 100 mM MES-HCl buffer, pH 6.0, containing 100 mM NaCl and 10 mM poly(C) RNA, which is a substrate for ribonuclease A. Ribonucleolytic activity was monitored by following the change in absorbance at 238 nm which accompanies the cleavage of poly(C) by enzymatically active ribonuclease A.

Row | Compound | complementation (rescue) of PDI deficient yeast (PDI deficient yeast) | pKa relative to BMC [1] | survival of colonies of PDI-deficient yeast after selection against the PDI plasmid [2] | catalysis of the regain of biological activity of a protein with scrambled disulfide bonds (scrambled ribonuclease A) | total yield of active protein, in the presence versus in the absence of the catalyst (scrambled ribonuclease A) | time until surviving colonies appeared ([2]; 5-FOA plate with 10 mM BMC)
1 | thioredoxin: 12 kilodalton protein from E. coli, prokaryotic functional homolog of PDI, active site Cys-Gly-Pro-Cys | failed |  |  |  |  | 
2 | O[C@@H](CS)[C@@H](O)CS (relative stereo) [DTT, dithiothrietol, reference compound] |  | higher | no yeast colonies could be rescued |  |  | 
3 | O=C(CS)NC1CCCCC1NC(=O)CS (stereo not shown) [BMC, N,N'-bis(2-mercaptoacetyl)-1,2-diaminocyclohexane] |  |  | Surviving colonies appeared | significant catalysis | significantly greater | 5 days
